Laboratory results taken from patent US11020416B2, “Cancer chemotherapy employing halogenated analogs of thymidine” (priority 2015, dated 2021).
pIC50, pKi: −log10 of the molar value. Like-named read-outs stand apart in the source and are kept apart here.

What was measured:
PARP1 [1] = target: T1, PARP1 (Homo sapiens, UniProt P09874); assay: Michaelis-Menten kinetic analysis of PARP1 enzymatic activity in solution (FIG. 1); assay type: biochemical
Method: Cloned human PARP-1 (8 nanomolar) was incubated with 100 nanomolar dA/dT, 50 micrograms/milliliter histone Hi and varying concentrations (50, 150, 450 micromolar) of ^32P-NAD^+ in the absence and presence of inhibitor (50 micromolar) at physiological pH (7.3) as described (E. Kirsten, E. Kun, J. Mendeleyev, C. P. Ordahl, Methods in Molecular Biology 287 137 (2004) and Kun, 2004 op cit). Reactions were started by the addition of PARP-1 and incubated for 10 minutes at room temperature after which acid precipitable ^32P was determined.
Target sequence in this assay (P09874 whole entry): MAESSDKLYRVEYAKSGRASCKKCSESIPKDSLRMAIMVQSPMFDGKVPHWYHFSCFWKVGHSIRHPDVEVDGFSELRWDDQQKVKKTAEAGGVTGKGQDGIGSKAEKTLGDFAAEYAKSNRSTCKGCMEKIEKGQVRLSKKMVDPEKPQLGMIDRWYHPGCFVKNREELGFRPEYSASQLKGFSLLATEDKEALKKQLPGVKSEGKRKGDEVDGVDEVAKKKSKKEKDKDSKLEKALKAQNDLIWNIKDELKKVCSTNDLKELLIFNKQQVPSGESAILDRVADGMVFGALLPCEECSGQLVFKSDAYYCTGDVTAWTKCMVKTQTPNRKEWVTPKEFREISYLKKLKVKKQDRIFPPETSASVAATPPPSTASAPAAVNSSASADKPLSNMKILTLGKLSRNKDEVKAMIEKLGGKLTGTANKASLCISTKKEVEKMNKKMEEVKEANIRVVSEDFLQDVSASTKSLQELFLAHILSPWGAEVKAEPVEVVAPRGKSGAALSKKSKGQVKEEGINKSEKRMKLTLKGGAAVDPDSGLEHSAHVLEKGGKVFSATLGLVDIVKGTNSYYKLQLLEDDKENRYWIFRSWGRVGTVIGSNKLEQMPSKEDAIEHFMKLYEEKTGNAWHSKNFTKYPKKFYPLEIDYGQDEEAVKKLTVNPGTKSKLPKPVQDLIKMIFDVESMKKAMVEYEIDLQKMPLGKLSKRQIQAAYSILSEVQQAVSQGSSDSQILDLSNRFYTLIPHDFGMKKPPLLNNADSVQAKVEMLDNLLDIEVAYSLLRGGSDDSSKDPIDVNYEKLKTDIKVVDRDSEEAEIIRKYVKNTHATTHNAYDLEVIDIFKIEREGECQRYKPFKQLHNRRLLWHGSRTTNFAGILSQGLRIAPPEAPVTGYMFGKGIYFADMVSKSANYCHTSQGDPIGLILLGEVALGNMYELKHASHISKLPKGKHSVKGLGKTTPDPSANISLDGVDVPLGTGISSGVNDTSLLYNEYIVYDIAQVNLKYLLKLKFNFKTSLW

[2] = tested on: Calu-6, a human lung carcinoma cell line; assay: 14-day culture of neoplastic cells with HAT, morphology and cell number (FIG. 2); assay type: cell-based; details: Calu-6, 10 micromolar, 14 days in culture (more than 300 without drug)
Description: (§1) FIGS. 2A-D illustrate HAT-Pi effects on two neoplastic cell lines; a) Calu-6, a human lung carcinoma cell line; and, b) DU-145, a human prostate metastatic carcinoma cell line.
(§2) Additionally, the overall appearance of the cultures and the morphology of the surviving cells is altered in specific ways. First, the remaining (surviving) cells are tightly adherent to the surface of the culture dish giving them a “flattened” appearance. Second, neoplastic cell expansion is attributable to cytoplasmic growth, which leaves the smaller internal cell nuclei distinctive in outline. Third, many cell outlines are “ruffled” in some regions due to the presence of lamellipodia, plasmalemma projections that are the leading edges of cell expansion (open arrows in FIGS. 2B and 2D). Fourth, specialized cell-cell contact and communication regions are evident where the lamellipodia of two or more cells meet (closed arrows in FIGS. 2B and 2D). […] These characteristic features of HAT-treated neoplastic cells indicate that substrate-attachment-dependent survival and contact inhibition have both been restored in surviving neoplastic cells. […]

[3] = tested on: DU-145, a human prostate metastatic carcinoma cell line; assay: as above; assay type: cell-based; details: DU-145, 10 micromolar, 14 days in culture (more than 300 without drug)
Description: as §1, §2

PARP1 [4] = details: solution; Rankin, 1989; cited from earlier work
PARP1 [5] = target: T2, PARP1 (Mus musculus, UniProt P11103); details: cultured 10T1/2 cells; Rankin, 1989; cited from earlier work
T2 construct: solution/cultured 10T1/2 cells; endogenous in cells; host or cells: cultured 10T1/2 cells

PARP1 [6] = target: T1, PARP1; details: solution; Pivazyan, 1992; cited from earlier work
Target sequence in this assay (P09874 whole entry, species assumed): as the sequence (P09874 whole entry) above

Unresectable Sarcoma = details: trial e, 1987, 5 patients, dose 1.3, iv, with radiation, multiple cycles up to 5 months; cited from earlier work
PARP1 [7] = target: T1, PARP1; design: isolated HeLa cell nuclei; endogenous in cells; host or cells: isolated HeLa cell nuclei; details: 1 mM; Preiss, 1971; cited from earlier work
Target sequence in this assay (P09874 whole entry): as above

PARP1 [8] = target: T1, PARP1; design: isolated HeLa cell nuclei; endogenous in cells; host or cells: isolated HeLa cell nuclei; details: 50 mM; Filetti, 1981; cited from earlier work
Target sequence in this assay (P09874 whole entry): as above

[9] = cited from earlier work
[10] = after infusion of bromodeoxyuridine or iododeoxyuridine; cited from earlier work
PARP1 [11] = target: T1, PARP1; details: cited from earlier work
Target sequence in this assay (P09874 whole entry, species assumed): as the sequence (P09874 whole entry) above

HeLa cells = details: cell culture; Sumikawa 2005; cited from earlier work
[12] = schedule A, single oral dose 2.40 Grams IPdR per M^2/day
[13] = schedule B, single oral dose 1.20 Grams IPdR per M^2/day
[14] = schedule C, single oral dose 0.60 Grams IPdR per M^2/day
[15] = schedule D, single oral dose 0.30 Grams IPdR per M^2/day
[16] = schedule E, single oral dose 0.15 Grams IPdR per M^2/day

T2 sequence (P11103 whole entry): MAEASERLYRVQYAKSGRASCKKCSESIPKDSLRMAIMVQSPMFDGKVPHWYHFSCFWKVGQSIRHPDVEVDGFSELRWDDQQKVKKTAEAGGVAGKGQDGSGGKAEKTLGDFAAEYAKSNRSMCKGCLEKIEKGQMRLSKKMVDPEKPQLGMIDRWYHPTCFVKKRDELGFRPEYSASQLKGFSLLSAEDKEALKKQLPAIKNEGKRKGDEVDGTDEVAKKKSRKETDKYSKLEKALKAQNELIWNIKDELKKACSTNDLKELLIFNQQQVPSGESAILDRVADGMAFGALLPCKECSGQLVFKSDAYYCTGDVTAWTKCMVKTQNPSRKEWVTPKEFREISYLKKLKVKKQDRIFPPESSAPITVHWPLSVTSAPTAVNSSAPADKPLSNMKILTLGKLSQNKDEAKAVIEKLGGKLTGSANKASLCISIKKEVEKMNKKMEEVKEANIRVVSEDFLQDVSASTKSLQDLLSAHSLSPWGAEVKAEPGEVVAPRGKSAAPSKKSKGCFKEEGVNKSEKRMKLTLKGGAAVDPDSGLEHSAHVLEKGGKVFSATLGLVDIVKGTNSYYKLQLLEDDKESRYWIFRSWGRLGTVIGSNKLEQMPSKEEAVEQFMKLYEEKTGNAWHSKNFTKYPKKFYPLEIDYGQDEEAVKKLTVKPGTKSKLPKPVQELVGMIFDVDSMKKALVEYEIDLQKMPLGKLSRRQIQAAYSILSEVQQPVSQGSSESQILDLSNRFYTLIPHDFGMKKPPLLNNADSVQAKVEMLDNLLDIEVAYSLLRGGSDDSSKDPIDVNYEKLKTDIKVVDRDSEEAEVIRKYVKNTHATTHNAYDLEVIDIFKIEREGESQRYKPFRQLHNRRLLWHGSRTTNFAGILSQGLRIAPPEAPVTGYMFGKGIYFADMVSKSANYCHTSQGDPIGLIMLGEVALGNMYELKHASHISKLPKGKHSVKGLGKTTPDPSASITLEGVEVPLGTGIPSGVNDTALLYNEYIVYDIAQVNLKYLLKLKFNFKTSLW

NC(=O)c1cccc(N)c1 [3-amino-benzamide]
mode of inhibition (PARP1 [1]; Lineweaver-Burk plot, lines intersect vertical axis at control point): in competition with the substrate

O=c1[nH]c(=O)n([C@H]2C[C@H](O)[C@@H](CO)O2)cc1Br [Bromodeoxyuridine, 5-bromodeoxyuridine]
pKi (PARP1 [1]; intercept of Lineweaver-Burk plot, 50 micromolar inhibitor, pH 7.3, read-out: inhibition constant): 4.52 to 5.00
total number of cells per field [2]: < 50 cells per field
total number of cells per field [3]: < 50 cells per field
pIC50 (PARP1 [4]): 4.82
pIC50 (PARP1 [5]): 4.24
pKi (PARP1 [6]): 4.46
objective improvement (Unresectable Sarcoma): 20%
subjective improvement (Unresectable Sarcoma): 20%
reported HAT inhibitory effect: inhibition (PARP1 [7]): 1 mM = 97% inhibition
reported HAT inhibitory effect (PARP1 [8]): 50 mM blocks hormone sensitization

O=c1ncc(I)cn1[C@H]1C[C@H](O)[C@@H](CO)O1 [IPdR, 5-iodo-2-pyrimidinone-2′-deoxyribose]
IU AUC [9, 12]: 1057.8 µM·h
IdU AUC [9, 12]: 12.2 µM·h
[IU] plasma (iodouracil), average maximum concentration [9, 12]: 133 µM
[IdU] plasma, average maximum concentration [9, 12]: 4.0 µM
IU AUC [9, 13]: 102.7 µM·h
IdU AUC [9, 13]: 4.7 µM·h
[IU] plasma (iodouracil), average maximum concentration [9, 13]: 34.2 µM
[IdU] plasma, average maximum concentration [9, 13]: 2.1 µM
IU AUC [9, 14]: 17.2 µM·h
IdU AUC [9, 14]: 3.2 µM·h
[IU] plasma (iodouracil), average maximum concentration [9, 14]: 4.5 µM
[IdU] plasma, average maximum concentration [9, 14]: 1.8 µM
IU AUC [9, 15]: 4.5 µM·h
IdU AUC [9, 15]: 0.3 µM·h
[IU] plasma (iodouracil), average maximum concentration [9, 15]: 0.8 µM
[IdU] plasma, average maximum concentration [9, 15]: 0.3 µM
IU AUC [9, 16]: 1.0 µM·h
IdU AUC [9, 16]: 1.7 µM·h
[IU] plasma (iodouracil), average maximum concentration [9, 16]: 0.2 µM
[IdU] plasma, average maximum concentration [9, 16]: 0.8 µM
time to average peak concentration of iododeoxyuridine in patient plasma ([9]; single oral dose of IPdR): ≤ 2 h

O=c1[nH]cc(I)c(=O)[nH]1 [Iodouracil, 5-iodouracil]
catabolite concentration accumulated in patient plasma [10]: ~100 µM
inhibition of PARP1 enzymatic activity (PARP1 [11]): demonstrated capacity to inhibit PARP1 enzymatic activity

O=c1[nH]cc(Br)c(=O)[nH]1 [Bromouracil, 5-bromouracil]
catabolite concentration accumulated in patient plasma [10]: ~100 µM
inhibition of PARP1 enzymatic activity (PARP1 [11]): demonstrated capacity to inhibit PARP1 enzymatic activity

Cc1cn([C@H]2C[C@H](O)[C@@H](CO)O2)c(=O)[nH]c1=O [Thymidine, thymidine]
concentration that induces HeLa cells to attach, flatten and undergo cell death and disintegration (HeLa cells): > 1.0 millimolar
